# Source: US9850283B2, “Macrocyclic inhibitors of the PD-1/PD-L1 and CD80(B7-1)/PD-L1 protein/protein interactions” (BRISTOL-MYERS SQUIBB COMPANY, priority 2013, dated 2017)
# Positions of bridges follow the written chain, without caps; N, C: chain ends. Non-standard residues stand in square brackets, D forms with d. Residues, ends and D or L forms follow the SMILES beside them. ξ: configuration not given here. *: point of attachment. Bip(2'-Me) = Cc1ccccc1-c1ccc(C[C@H](N)C(=O)O)cc1; Trp(7-aza) = N[C@@H](Cc1c[nH]c2ncccc12)C(=O)O; ξTrp(5-F) = NC(Cc1c[nH]c2ccc(F)cc12)C(=O)O; Bip = N[C@@H](Cc1ccc(-c2ccccc2)cc1)C(=O)O; NMeW = CN[C@@H](Cc1c[nH]c2ccccc12)C(=O)O; Pro(4S-NH2) = N[C@@H]1CN[C@H](C(=O)O)C1; Pro(4,4-F2) = O=C(O)[C@@H]1CC(F)(F)CN1; Bta = N[C@@H](Cc1csc2ccccc12)C(=O)O; Cyclobutanecarbonyl = O=C(C1CCC1)*; Hyp = O=C(O)[C@@H]1C[C@@H](O)CN1; NMeNle = CCCC[C@H](NC)C(=O)O; ξR = N=C(N)NCCCC(N)C(=O)O; NMeA = CN[C@@H](C)C(=O)O; Dab = NCC[C@H](N)C(=O)O; Dap = NC[C@H](N)C(=O)O; ξOrn = NCCCC(N)C(=O)O; ξP = O=C(O)C1CCCN1; ξC = NC(CS)C(=O)O; ξS = NC(CO)C(=O)O; Sar = CNCC(=O)O
# Assays:
# Human PD-L1/PD-1 = molecular target: T1, Human PD-L1/PD-1 (Homo sapiens, UniProt Q9NZQ7); assay: HTRF PD-1-Ig/PD-L1-His binding assay (human PD-L1); conditions: cluster symbol; read-out: HTRF IC50 cluster
# T1 construct: made in house; host or cells: HEK293T
# Summary of the method: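 HTRF read-out: Eu cryptate anti-Ig mAb 1 nM final, APC anti-His mAb 20 nM final, added over the binding reaction. Proteins were PD-1-Ig and PD-L1-His ectodomain fusions. Buffer was dPBS, 0.1% BSA, 0.05% Tween-20.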
# [1] = molecular target: T2, LK35.2-hPD-L1 cells / PE-labeled PD-1-Ig (Homo sapiens, UniProt Q9NZQ7); assay: LK35.2-hPD-L1 cell binding high-content screening assay; assay type: cell-based; conditions: cluster symbol; cell line of CBA not given (LK35.2-hPD-L1 or 293T-hPD-L1); read-out: CBA IC50 cluster
# T2 construct: expressed in transfected cells; host or cells: LK35.2 mouse B cell line
# Summary of the method: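 Using overnight-cultured LK35.2-hPD-L1 mouse B cells, compound was co-incubated with phycoerythrin-tagged human PD-1-Ig (final 1 nM) at 37 °C for one hour. Unbound label was removed by triple dPBS washing prior to high-content image acquisition and analysis.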
# T2 sequence (Q9NZQ7 19-290): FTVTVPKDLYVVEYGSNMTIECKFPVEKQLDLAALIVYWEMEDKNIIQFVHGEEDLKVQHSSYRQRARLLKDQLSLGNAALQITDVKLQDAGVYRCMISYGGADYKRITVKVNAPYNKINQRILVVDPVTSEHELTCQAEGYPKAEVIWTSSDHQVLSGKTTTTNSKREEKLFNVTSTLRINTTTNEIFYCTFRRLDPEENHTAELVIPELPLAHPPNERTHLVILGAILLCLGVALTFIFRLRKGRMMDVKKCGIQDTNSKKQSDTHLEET
# T1 sequence (Q9NZQ7 with tags, fused parts or gaps): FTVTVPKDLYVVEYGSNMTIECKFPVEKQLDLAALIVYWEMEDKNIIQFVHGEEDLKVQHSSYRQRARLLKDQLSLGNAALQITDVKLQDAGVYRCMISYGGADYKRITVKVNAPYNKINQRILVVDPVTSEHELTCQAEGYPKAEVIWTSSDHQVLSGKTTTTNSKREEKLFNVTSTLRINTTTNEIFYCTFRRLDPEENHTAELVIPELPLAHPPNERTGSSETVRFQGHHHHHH
Compound,IC50 (Human PD-L1/PD-1) [nM],IC50 [1] [nM]
CCCC[C@H]1C(=O)N(C)[C@@H](CCCC)C(=O)NC(CCCNC(=N)N)C(=O)NC(C(=O)NCC(N)=O)CSCC(=O)N[C@@H](Cc2ccccc2)C(=O)N(C)[C@@H](C)C(=O)N[C@@H](CC(N)=O)C(=O)N2CCCC2C(=O)N[C@@H](Cc2cnc[nH]2)C(=O)N[C@@H](CC(C)C)C(=O)N(C)CC(=O)N[C@@H](Cc2c[nH]c3ccccc23)C(=O)NC(CO)C(=O)N[C@@H](Cc2ccc(-c3ccccc3)cc2)C(=O)N1C (stereo partly shown) [Example 1028] ({CH2CO}-F[NMeA]N[ξP]HL[Sar]W[ξS][Bip][NMeNle][NMeNle][ξR][ξC]G-NH2; thioether N-14),> 30.5,> 74.3
CCCC[C@H]1C(=O)N(C)[C@@H](CCCC)C(=O)NC(CCCNC(=N)N)C(=O)NC(C(=O)NCC(N)=O)CSCC(=O)N[C@@H](Cc2ccccc2)C(=O)N(C)[C@@H](C)C(=O)N[C@@H](CC(N)=O)C(=O)N2CCCC2C(=O)N[C@@H](Cc2cnc[nH]2)C(=O)N[C@@H](CC(C)C)C(=O)N(C)CC(=O)N[C@@H](Cc2c[nH]c3ccccc23)C(=O)NC(CO)C(=O)N[C@@H](Cc2ccc(-c3ccccc3C)cc2)C(=O)N1C (stereo partly shown) [Example 1030] ({CH2CO}-F[NMeA]N[ξP]HL[Sar]W[ξS][Bip(2'-Me)][NMeNle][NMeNle][ξR][ξC]G-NH2; thioether N-14),> 30.5,> 74.3
CCCC[C@H]1C(=O)N[C@@H](CCCNC(=N)N)C(=O)N[C@H](C(=O)NCC(N)=O)CSCC(=O)N[C@@H](Cc2ccccc2)C(=O)N(C)[C@@H](C)C(=O)N[C@@H](CC(N)=O)C(=O)N2CCC[C@H]2C(=O)N[C@@H](Cc2cnc[nH]2)C(=O)N[C@@H](CC(C)C)C(=O)N(C)CC(=O)N[C@@H](Cc2c[nH]c3ccccc23)C(=O)N[C@@H](CO)C(=O)N(C)[C@@H](Cc2c[nH]c3ccccc23)C(=O)N(C)[C@@H](CCCC)C(=O)N1C [Example 1031] ({CH2CO}-F[NMeA]NPHL[Sar]WS[NMeW][NMeNle][NMeNle]RCG-NH2; thioether N-14),> 30.5,> 74.3
"CC(C)C[C@@H]1NC(=O)[C@H](Cc2c[nH]cn2)NC(=O)[C@@H]2CCCN2C(=O)[C@H](CC(N)=O)NC(=O)[C@H](C)N(C)C(=O)[C@H](Cc2ccccc2)NC(=O)CSC[C@@H](C(=O)NCC(N)=O)NC(=O)[C@H](CCCNC(=N)N)NC(=O)[C@H](C)N(C)C(=O)[C@H](Cc2ccc(-c3ccccc3)cc2)NC(=O)[C@H](Cc2c[nH]c3ccccc23)NC(=O)[C@H](CO)NC(=O)[C@H](Cc2c[nH]c3ccccc23)NC(=O)CN(C)C1=O [Example 1032] (HELM PEPTIDE1{[O=C(C[*:3])[*:2]].F.[meA].N.P.H.L.[Sar].W.S.W.[O=C([C@H](Cc1ccc(-c2ccccc2)cc1)N[*:1])[*:2]].[meA].R.C.G.[am]}$PEPTIDE1,PEPTIDE1,1:R3-15:R3$$$V2.0)",> 30.5,> 74.3
CC(C)C[C@@H]1NC(=O)[C@H](Cc2c[nH]cn2)NC(=O)[C@@H]2CCCN2C(=O)[C@H](CC(N)=O)NC(=O)[C@H](C)N(C)C(=O)[C@H](Cc2ccccc2)NC(=O)CSC[C@@H](C(=O)NCC(N)=O)NC(=O)[C@H](CCCNC(=N)N)NC(=O)[C@H](C)N(C)C(=O)[C@H](CNC(=O)C2CCC2)NC(=O)[C@H](Cc2c[nH]c3ccccc23)NC(=O)[C@H](CO)NC(=O)[C@H](Cc2c[nH]c3ccccc23)NC(=O)CN(C)C1=O [Example 1033] ({CH2CO}-F[NMeA]NPHL[Sar]WSW[Dap](Cyclobutanecarbonyl)[NMeA]RCG-NH2; thioether N-14),> 30.5,> 74.3
CC(C)C[C@@H]1NC(=O)[C@H](Cc2cnc[nH]2)NC(=O)[C@@H]2CCCN2C(=O)[C@H](CC(N)=O)NC(=O)[C@H](C)N(C)C(=O)[C@H](Cc2ccccc2)NC(=O)CSC[C@@H](C(=O)NCC(N)=O)NC(=O)[C@H](CCCNC(=N)N)NC(=O)[C@H](C)N(C)C(=O)[C@H](CCNC(=O)C2CCC2)NC(=O)[C@H](Cc2c[nH]c3ccccc23)NC(=O)[C@H](CO)NC(=O)[C@H](Cc2c[nH]c3ccccc23)NC(=O)CN(C)C1=O [Example 1034] ({CH2CO}-F[NMeA]NPHL[Sar]WSW[Dab](Cyclobutanecarbonyl)[NMeA]RCG-NH2; thioether N-14),> 30.5,> 74.3
CCCC[C@H]1C(=O)N(C)[C@@H](CCCC)C(=O)N[C@@H](CCCNC(=N)N)C(=O)N[C@H](C(=O)NCC(N)=O)CSCC(=O)N[C@@H](Cc2ccc(O)cc2)C(=O)N(C)[C@@H](C)C(=O)N[C@@H](CC(N)=O)C(=O)N2CCC[C@H]2C(=O)N[C@@H](Cc2cnc[nH]2)C(=O)N[C@@H](CC(C)C)C(=O)N2C[C@H](O)C[C@H]2C(=O)N[C@@H](Cc2c[nH]c3ccccc23)C(=O)N[C@@H](CO)C(=O)N[C@@H](Cc2csc3ccccc23)C(=O)N1C [Example 1035] ({CH2CO}-Y[NMeA]NPHL[Hyp]WS[Bta][NMeNle][NMeNle]RCG-NH2; thioether N-14),6.76 to 30.3,0.158 to 4.71
"CCCC[C@H]1C(=O)N(C)[C@@H](CCCC)C(=O)N[C@@H](CCCNC(=N)N)C(=O)N[C@H](C(=O)NCC(N)=O)CSCC(=O)N[C@@H](Cc2ccc(O)cc2)C(=O)N(C)[C@@H](C)C(=O)N[C@@H](CC(N)=O)C(=O)N2CCC[C@H]2C(=O)N[C@@H](Cc2cnc[nH]2)C(=O)N[C@@H](CC(C)C)C(=O)N2CC(F)(F)C[C@H]2C(=O)N[C@@H](Cc2c[nH]c3ccccc23)C(=O)N[C@@H](CO)C(=O)N[C@@H](Cc2csc3ccccc23)C(=O)N1C [Example 1036] ({CH2CO}-Y[NMeA]NPHL[Pro(4,4-F2)]WS[Bta][NMeNle][NMeNle]RCG-NH2; thioether N-14)",6.76 to 30.3,0.158 to 4.71
CCCC[C@H]1C(=O)N(C)[C@@H](CCCC)C(=O)N[C@@H](CCCNC(=N)N)C(=O)N[C@H](C(=O)NCC(N)=O)CSCC(=O)N[C@@H](Cc2ccc(O)cc2)C(=O)N(C)[C@@H](C)C(=O)N[C@@H](CC(N)=O)C(=O)N2CCC[C@H]2C(=O)N[C@@H](Cc2cnc[nH]2)C(=O)N[C@@H](CC(C)C)C(=O)N2C[C@@H](N)C[C@H]2C(=O)N[C@@H](Cc2c[nH]c3ccccc23)C(=O)N[C@@H](CO)C(=O)N[C@@H](Cc2csc3ccccc23)C(=O)N1C [Example 1037] ({CH2CO}-Y[NMeA]NPHL[Pro(4S-NH2)]WS[Bta][NMeNle][NMeNle]RCG-NH2; thioether N-14),6.76 to 30.3,0.158 to 4.71
CCCC[C@H]1C(=O)N(C)[C@@H](CCCC)C(=O)N[C@@H](CCCNC(=N)N)C(=O)N[C@H](C(=O)NCC(N)=O)CSCC(=O)N[C@@H](Cc2ccccc2)C(=O)N(C)[C@@H](C)C(=O)N[C@@H](CC(N)=O)C(=O)N2CCC[C@H]2C(=O)N[C@@H](Cc2cnc[nH]2)C(=O)N[C@@H](CC(C)C)C(=O)N(C)CC(=O)N[C@@H](Cc2c[nH]c3ccccc23)C(=O)N[C@@H](CO)C(=O)N[C@@H](Cc2c[nH]c3ncccc23)C(=O)N1C [Example 1038] ({CH2CO}-F[NMeA]NPHL[Sar]WS[Trp(7-aza)][NMeNle][NMeNle]RCG-NH2; thioether N-14),> 30.5,> 74.3
CCCC[C@H]1C(=O)N(C)[C@@H](CCCC)C(=O)N[C@@H](CCCNC(=N)N)C(=O)N[C@H](C(=O)NCC(N)=O)CSCC(=O)N[C@@H](Cc2ccccc2)C(=O)N(C)[C@@H](C)C(=O)N[C@@H](CC(N)=O)C(=O)N2CCC[C@H]2C(=O)N[C@@H](Cc2cnc[nH]2)C(=O)N[C@@H](CC(C)C)C(=O)N(C)CC(=O)N[C@@H](Cc2c[nH]c3ccccc23)C(=O)N[C@@H](CO)C(=O)NC(Cc2c[nH]c3ccc(F)cc23)C(=O)N1C (stereo partly shown) [Example 1039] ({CH2CO}-F[NMeA]NPHL[Sar]WS[ξTrp(5-F)][NMeNle][NMeNle]RCG-NH2; thioether N-14),> 30.5,4.78 to 72.9
CCCC[C@H]1C(=O)N(C)[C@@H](CCCC)C(=O)N[C@@H](CCCCN)C(=O)N[C@H](C(=O)NCC(N)=O)CSCC(=O)N[C@@H](Cc2ccc(O)cc2)C(=O)N(C)[C@@H](C)C(=O)N[C@@H](CC(N)=O)C(=O)N2CCC[C@H]2C(=O)N[C@@H](Cc2cnc[nH]2)C(=O)N[C@@H](CC(C)C)C(=O)N2CCC[C@H]2C(=O)N[C@@H](Cc2c[nH]c3ccccc23)C(=O)N[C@@H](CO)C(=O)N[C@@H](Cc2csc3ccccc23)C(=O)N1C [Example 1041] ({CH2CO}-Y[NMeA]NPHLPWS[Bta][NMeNle][NMeNle]KCG-NH2; thioether N-14),6.76 to 30.3,0.158 to 4.71
CCCC[C@H]1C(=O)N(C)[C@@H](CCCC)C(=O)NC(CCCN)C(=O)N[C@H](C(=O)NCC(N)=O)CSCC(=O)N[C@@H](Cc2ccc(O)cc2)C(=O)N(C)[C@@H](C)C(=O)N[C@@H](CC(N)=O)C(=O)N2CCCC2C(=O)N[C@@H](Cc2cnc[nH]2)C(=O)N[C@@H](CC(C)C)C(=O)N2CCC[C@H]2C(=O)N[C@@H](Cc2c[nH]c3ccccc23)C(=O)N[C@@H](CO)C(=O)N[C@@H](Cc2csc3ccccc23)C(=O)N1C (stereo partly shown) [Example 1042] ({CH2CO}-Y[NMeA]N[ξP]HLPWS[Bta][NMeNle][NMeNle][ξOrn]CG-NH2; thioether N-14),0.385 to 6.74,0.158 to 4.71
C=CCCCC[C@H]1C(=O)N(C)[C@@H](CCCCC=C)C(=O)N[C@@H](CCCNC(=N)N)C(=O)N[C@H](C(=O)NCC(N)=O)CSCC(=O)N[C@@H](Cc2ccccc2)C(=O)N(C)[C@@H](C)C(=O)N[C@@H](CC(N)=O)C(=O)N2CCC[C@H]2C(=O)N[C@@H](Cc2cnc[nH]2)C(=O)N[C@@H](CC(C)C)C(=O)N(C)CC(=O)N[C@@H](Cc2c[nH]c3ccccc23)C(=O)N[C@@H](CO)C(=O)N[C@@H](Cc2c[nH]c3ccccc23)C(=O)N1C [Example 1043],6.76 to 30.3,4.78 to 72.9
